Measured values published in patent US20260297042A1, “BIARYLAMIDE DERIVATIVES AND THEIR USE AS PKMYT1 INHIBITORS” (CANCER RESEARCH TECHNOLOGY LIMITED, priority 2023, published 2026).

Legend:
OVCAR 3 cells = experiment: Cancer cell line proliferation assay, ATP-based cell viability (Cell Titre Glow), OVCAR 3 (CCNE1-amplified); conditions: KYSE30 (normal CCNE1) GI50 vs. OVCAR 3 (CCNE1-amplified) GI50
Procedure, shortened: (§1)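 CellTiter-Glo luminescence endpoint; PKMYT1 inhibitor exposure; GI50 = conc. for 50% growth inhibition, curve-fitted.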

WEE1 = target: T1, WEE1 (Homo sapiens, UniProt P30291); experiment: Selectivity versus WEE1 assay (ADP-Glo enzymatic assay); assay type: biochemical; conditions: for IC50: ADP-Glo; for PKMYT1 vs. WEE1 selectivity: fold difference in selectivity for PKMYT1 over WEE1
T1 construct: purchased Thermo Fisher PR7373A
Procedure, shortened: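 WEE1 at 15 nM final in 50 mM HEPES pH 7.5, 10 mM MgCl2, 1 mM EGTA, 0.01% Brij-35, 1% DMSO; reaction started with 30 µM ATP, 60 min at 26 °C. ADP-Glo luminescence; IC50 from dose-response curves, replicates within 3-fold and r2 >0.9.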

Human PKMYT1 = target: T2, Human PKMYT1 (Homo sapiens, UniProt Q99640); experiment: PKMYT1 biochemical ADP-Glo enzymatic assay; conditions: ADP-Glo
T2 construct: Human PKMYT1 75-362 was cloned as a TEV cleavable 6xHis fusion; 6xHis (TEV cleavable) (cleaved yes); made in house; host or cells: bacterial cells
T2 sequence (Q99640 75-362): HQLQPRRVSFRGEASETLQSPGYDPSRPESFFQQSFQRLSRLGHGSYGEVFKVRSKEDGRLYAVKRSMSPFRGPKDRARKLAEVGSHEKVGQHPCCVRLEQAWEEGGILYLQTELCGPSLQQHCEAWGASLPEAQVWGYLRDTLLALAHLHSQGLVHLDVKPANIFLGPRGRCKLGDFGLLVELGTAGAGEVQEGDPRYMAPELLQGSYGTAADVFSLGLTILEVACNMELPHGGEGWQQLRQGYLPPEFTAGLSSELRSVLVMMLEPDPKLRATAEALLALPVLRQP
Procedure, shortened: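 Purified untagged human PKMYT1 75-362 at 15 nM final was tested in HEPES pH 7.5 with MgCl2, EGTA, Brij-35 and 1% DMSO. Intrinsic ATPase activity was measured with 500 uM ATP over 60 min at 26° C. ADP-Glo luminescence was read and IC50 fitted from 10-point, 3-fold dilution curves.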

KYSE-30 cells = experiment: Cancer cell line proliferation assay, ATP-based cell viability (Cell Titre Glow), KYSE-30 (normal CCNE1); conditions: Homo sapiens, KYSE-30 cells (normal CCNE1), concentration that achieves 50% cell growth proliferation inhibition, read-out: KYSE30 Gl50
Procedure, shortened: as §1

[1] = target: T3, Cellular PKMYT1 Biomarker CDK1 pT14 (Homo sapiens, UniProt Q99640); experiment: Inhibition of cellular PKMYT1 biomarker CDK1 pT14 in OVCAR 3 cells (immunoblot); assay type: cell-based; conditions: 20 hours incubation
T3 construct: read-out CDK1 phospho-T14 immunoblot
T3 sequence (Q99640 1-499): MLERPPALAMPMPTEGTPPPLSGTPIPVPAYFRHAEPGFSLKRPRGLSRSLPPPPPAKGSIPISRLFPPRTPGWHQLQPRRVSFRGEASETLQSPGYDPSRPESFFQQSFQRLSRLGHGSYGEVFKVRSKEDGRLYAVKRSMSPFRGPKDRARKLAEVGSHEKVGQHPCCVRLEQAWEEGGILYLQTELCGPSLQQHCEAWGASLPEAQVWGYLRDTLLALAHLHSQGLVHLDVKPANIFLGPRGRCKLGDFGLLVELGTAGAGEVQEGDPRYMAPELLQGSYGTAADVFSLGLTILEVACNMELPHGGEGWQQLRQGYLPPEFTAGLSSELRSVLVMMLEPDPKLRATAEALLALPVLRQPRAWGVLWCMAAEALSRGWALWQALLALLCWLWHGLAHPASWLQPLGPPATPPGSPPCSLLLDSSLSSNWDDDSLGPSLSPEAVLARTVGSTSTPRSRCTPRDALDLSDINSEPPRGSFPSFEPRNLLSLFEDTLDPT
Procedure, shortened: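 Confluent OVCAR 3 cells treated with a compound concentration range for 20 h at 37 °C. Lysates analysed by automated capillary immunoblot for CDK1 phospho-T14, with vinculin, fluorescence detection; IC50 by regression.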

[2] = 15 nM WEE1, 60 minutes at 26° C., banded
[3] = banded, ">N" = at least in this band but could be higher
[4] = 15 nM PKMYT1 kinase domain, 500 µM ATP, 60 minutes at 26° C., banded
[5] = PKMYT1 kinase domain 15 nM, banded values

T1 sequence (P30291 whole entry): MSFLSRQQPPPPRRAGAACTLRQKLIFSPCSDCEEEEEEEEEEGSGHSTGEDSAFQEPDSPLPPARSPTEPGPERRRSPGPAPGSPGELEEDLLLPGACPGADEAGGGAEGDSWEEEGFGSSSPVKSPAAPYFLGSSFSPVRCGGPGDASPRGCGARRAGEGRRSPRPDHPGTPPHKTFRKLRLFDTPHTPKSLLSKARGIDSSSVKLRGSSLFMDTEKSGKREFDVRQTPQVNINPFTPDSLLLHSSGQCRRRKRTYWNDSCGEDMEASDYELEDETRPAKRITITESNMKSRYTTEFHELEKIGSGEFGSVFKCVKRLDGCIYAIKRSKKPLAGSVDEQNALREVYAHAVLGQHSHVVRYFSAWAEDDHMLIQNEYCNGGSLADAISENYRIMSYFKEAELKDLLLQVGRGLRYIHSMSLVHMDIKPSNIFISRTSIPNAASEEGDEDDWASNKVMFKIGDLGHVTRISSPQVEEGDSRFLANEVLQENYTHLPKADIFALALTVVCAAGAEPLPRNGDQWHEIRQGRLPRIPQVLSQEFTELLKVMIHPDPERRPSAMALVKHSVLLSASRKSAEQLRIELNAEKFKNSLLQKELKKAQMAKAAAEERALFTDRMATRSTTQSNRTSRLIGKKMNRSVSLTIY

SMILES | Selectivity ratio KYSE30 Gl50 vs. OVCAR3 Gl50 (OVCAR 3 cells) | IC50 (WEE1; [2]) [nM] | PKMYT1 vs. WEE1 selectivity (WEE1; [3]) | IC50 (Human PKMYT1; [4]) [nM] | GI50 (KYSE-30 cells) [nM] | IC50 [1] [nM] | IC50 (WEE1; WEE1 15 nM, banded values) [nM] | PKMYT1 vs. WEE1 selectivity (WEE1; banded) | IC50 (Human PKMYT1; [5]) [nM]
Cc1cn(-c2ccccc2)nc1Nc1ncc(C(=O)Nc2c(C)ccc(O)c2C)s1 [BAA-361, N-(3-hydroxy-2,6-dimethylphenyl)-2-((4-methyl-1-phenyl-1H-pyrazol-3-yl)amino)thiazole-5-carboxamide] | Y (>20 fold) | > 11000 | X (100-<1000 fold) | < 50 | 500 to 5000 | < 100 | – | – | –
Cc1ccc(O)c(C)c1NC(=O)c1cnc(Nc2nccc3ccc(F)cc23)s1 [BAA-303, 2-((7-fluoroisoquinolin-1-yl)amino)-N-(3-hydroxy-2,6-dimethylphenyl)thiazole-5-carboxamide] | X (3-20 fold) | > 11000 | Y (1000-5000 fold) | < 50 | 500 to 5000 | < 100 | – | – | –
Cc1ccc(O)c(C)c1NC(=O)c1cnc(Nc2ccc3ncccc3n2)s1 [BAA-596, 2-((1,5-naphthyridin-2-yl)amino)-N-(3-hydroxy-2,6-dimethylphenyl)thiazole-5-carboxamide] | Y (>20 fold) | – | – | – | 500 to 5000 | 100 to 1000 | > 11000 | Y (1000-5000 fold) | < 50
CCc1cn(CC(F)F)nc1Nc1ncc(C(=O)Nc2c(C)ccc(O)c2C)s1 [BAA-589, 2-((1-(2,2-difluoroethyl)-4-ethyl-1H-pyrazol-3-yl)amino)-N-(3-hydroxy-2,6-dimethylphenyl)thiazole-5-carboxamide] | Y (>20 fold) | – | – | – | > 5000 | < 100 | 1000 to 11000 | X (100-<1000 fold) | < 50
Cc1ccc(O)c(C)c1NC(=O)c1cnc(Nc2nn(CC#N)cc2Br)s1 [BAA-586, 2-((4-bromo-1-(cyanomethyl)-1H-pyrazol-3-yl)amino)-N-(3-hydroxy-2,6-dimethylphenyl)thiazole-5-carboxamide] | X (3-20 fold) | – | – | – | 500 to 5000 | < 100 | 50 to 1000 | W (10-<100 fold) | < 50
Cc1ccc(NC(=O)C(C)C)nc1Nc1ncc(C(=O)Nc2c(C)ccc(O)c2C)s1.Cl [BAA-332, N-(3-hydroxy-2,6-dimethylphenyl)-2-((6-isobutyramido-3-methylpyridin-2-yl)amino)thiazole-5-carboxamide hydrochloride] | Y (>20 fold) | > 11000 | X (100-<1000 fold) | < 50 | 500 to 5000 | < 100 | – | – | –
Cc1ccc(-c2cnn(C)c2)nc1Nc1ncc(C(=O)Nc2c(C)ccc(O)c2C)s1 [BAA-396, N-(3-hydroxy-2,6-dimethylphenyl)-2-((3-methyl-6-(1-methyl-1H-pyrazol-4-yl)pyridin-2-yl)amino)thiazole-5-carboxamide] | Y (>20 fold) | – | – | – | 500 to 5000 | < 100 | 1000 to 11000 | X (100-<1000 fold) | < 50
Cc1ccc(F)c(Nc2ncc(C(=O)Nc3c(C)ccc(O)c3C)s2)n1 [BAA-420, 2-((3-fluoro-6-methylpyridin-2-yl)amino)-N-(3-hydroxy-2,6-dimethylphenyl)thiazole-5-carboxamide] | Y (>20 fold) | – | – | – | 500 to 5000 | < 100 | > 11000 | Y (1000-5000 fold) | < 50
Cc1cn(CC(=O)N(C)C2CC2)nc1Nc1ncc(C(=O)Nc2c(C)ccc(O)c2C)s1 [BAA-554, 2-((1-(2-(cyclopropyl(methyl)amino)-2-oxoethyl)-4-methyl-1H-pyrazol-3-yl)amino)-N-(3-hydroxy-2,6-dimethylphenyl)thiazole-5-carboxamide] | Y (>20 fold) | – | – | – | > 5000 | < 100 | 1000 to 11000 | X (100-<1000 fold) | < 50
CCc1c[nH]nc1Nc1ncc(C(=O)Nc2c(C)ccc(O)c2C)s1 [BAA-594, 2-((4-Ethyl-1H-pyrazol-3-yl)amino)-N-(3-hydroxy-2,6-dimethylphenyl)thiazole-5-carboxamide] | Y (>20 fold) | – | – | – | > 5000 | < 100 | 1000 to 11000 | X (100-<1000 fold) | < 50
Cc1ccc(O)c(C)c1NC(=O)c1cnc(Nc2nn(C)c3ccccc23)s1 [BAA-126, N-(3-hydroxy-2,6-dimethyl-phenyl)-2-[(1-methylindazol-3-yl)amino]thiazole-5-carboxamide] | Y (>20 fold) | 1000 to 11000 | X (100-<1000 fold) | < 50 | > 5000 | < 100 | – | – | –
Cc1cn(C(CO)C(=O)N2CCCC2C(F)(F)F)nc1Nc1ncc(C(=O)Nc2c(C)ccc(O)c2C)s1 (stereo not drawn) [BAA-578, 2-((1-(3-hydroxy-1-oxo-1-(2-(trifluoromethyl)pyrrolidin-1-yl)propan-2-yl)-4-methyl-1H-pyrazol-3-yl)amino)-N-(3-hydroxy-2,6-dimethylphenyl)thiazole-5-carboxamide] | Y (>20 fold) | – | – | – | > 5000 | < 100 | 1000 to 11000 | X (100-<1000 fold) | < 50
Cc1ccc(O)c(C)c1NC(=O)c1cnc(Nc2cccc(NC(=O)c3ccc(F)cc3)n2)s1 [BAA-320, 2-((6-(4-fluorobenzamido)pyridin-2-yl)amino)-N-(3-hydroxy-2,6-dimethylphenyl)thiazole-5-carboxamide] | Y (>20 fold) | > 11000 | Y (1000-5000 fold) | < 50 | 500 to 5000 | < 100 | – | – | –
